Here are results for 62 molecules from US8399480B2, “Hydroxymethyl pyrrolidines as beta 3 adrenergic receptor agonists” (Merck Sharp & Dohme Corp., priority 2008, dated 2013).

T1 sequence (P13945 whole entry): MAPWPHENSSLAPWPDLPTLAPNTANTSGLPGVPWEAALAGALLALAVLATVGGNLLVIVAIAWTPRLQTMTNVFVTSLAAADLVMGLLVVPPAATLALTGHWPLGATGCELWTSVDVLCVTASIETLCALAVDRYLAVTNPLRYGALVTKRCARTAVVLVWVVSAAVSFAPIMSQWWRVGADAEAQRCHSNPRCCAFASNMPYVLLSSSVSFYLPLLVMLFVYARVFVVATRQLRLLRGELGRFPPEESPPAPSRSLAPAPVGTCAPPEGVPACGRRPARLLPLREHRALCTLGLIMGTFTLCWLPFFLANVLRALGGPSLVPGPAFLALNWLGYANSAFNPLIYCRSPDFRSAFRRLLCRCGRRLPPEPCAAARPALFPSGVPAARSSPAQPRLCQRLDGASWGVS

This assay concerns the target T1, human β3 adrenergic receptor (Homo sapiens, UniProt P13945).
T1 construct: expressed in transfected cells; host or cells: Chinese hamster ovary (CHO) cells, stably transfected
Kind of assay: Functional assay: cAMP production (LANCE TR-FRET) in CHO cells stably transfected with cloned β3 adrenergic receptor. As to conditions: Table 4; human β3 functional activity; read-out: Human β Binding. In kind it is cell-based. The method, boiled down: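 Agonist-stimulated cAMP in CHO cells stably expressing human β3 receptor, 6,000 cells per well in HBSS/HEPES/0.1% BSA with 0.6 mM IBMX, 30 min at room temperature. LANCE TR-FRET readout converted to cAMP via standard curve; maximal stimulation defined with isoproterenol.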
As for `O=C(Nc1ccc(C[C@@H]2CC[C@H]([C@H](O)c3ccccc3)N2)cc1)c1ccccc1-n1nccn1` [Example 11], the EC50 was in the range of 0.011 to 0.1 µM. `O=C(Nc1ccc(C[C@@H]2CC[C@H]([C@H](O)c3ccccc3)N2)cc1)c1ccccc1-c1ncc[nH]1` [Example 12]: the EC50 fell in the range of 0.011 to 0.1 µM. For the molecule `O=C(Nc1ccc(C[C@@H]2CC[C@H]([C@H](O)c3ccccc3)N2)cc1)c1ccccc1-c1nnn[nH]1` [Example 13], the EC50 fell in the range of 0.011 to 0.1 µM. To `O=C(Nc1ccc(C[C@@H]2CC[C@H]([C@H](O)c3ccccc3)N2)cc1)c1ccccc1-c1nc2ccccc2s1` [Example 14] belongs 0.101 to 1 µM; to `Cc1nn(CC(=O)Nc2ccc(C[C@@H]3CC[C@H]([C@H](O)c4ccccc4)N3)cc2)c(=O)c2ccccc12` [Example 15], 0.001 to 0.01 µM.

`O=C(Cn1cnc2ccccc2c1=O)Nc1ccc(C[C@@H]2CC[C@H]([C@H](O)c3ccccc3)N2)cc1` [Example 16]: the EC50 fell in the range of 0.001 to 0.01 µM.

For `O=C(Cn1c(=O)ncc2ccccc21)Nc1ccc(C[C@@H]2CC[C@H]([C@H](O)c3ccccc3)N2)cc1` [Example 17], the EC50 lay within 0.001 to 0.01 µM. On to `O=C(Cn1nc(Cc2ccccc2)c2ccccc2c1=O)Nc1ccc(C[C@@H]2CC[C@H]([C@H](O)c3ccccc3)N2)cc1` [Example 18], for which the EC50 was in the range of 0.001 to 0.01 µM. To `O=C(Cn1ncccc1=O)Nc1ccc(C[C@@H]2CC[C@H]([C@H](O)c3ccccc3)N2)cc1` [Example 20] belongs 0.001 to 0.01 µM; to `Cc1nnc(CC(=O)Nc2ccc(C[C@@H]3CC[C@H]([C@H](O)c4ccccc4)N3)cc2)[nH]1` [Example 21], 0.011 to 0.1 µM. Turning to `O=C(Cc1nnc(-c2ccccc2)[nH]1)Nc1ccc(C[C@@H]2CC[C@H]([C@H](O)c3ccccc3)N2)cc1` [Example 22], the EC50 was less than 0.001 µM. To `O=C(Cc1nnc(-c2ccc(Cl)cc2)[nH]1)Nc1ccc(C[C@@H]2CC[C@H]([C@H](O)c3ccccc3)N2)cc1` [Example 23] belongs 0.011 to 0.1 µM; to `O=C(Cc1nnc(-c2cscn2)[nH]1)Nc1ccc(C[C@@H]2CC[C@H]([C@H](O)c3ccccc3)N2)cc1` [Example 24], 0.001 to 0.01 µM; to `O=C(Cc1nnc(-c2ccncc2)[nH]1)Nc1ccc(C[C@@H]2CC[C@H]([C@H](O)c3ccccc3)N2)cc1` [Example 25], 0.011 to 0.1 µM. The result for `O=C(Cc1nnc(-c2cc(Cl)cc(Cl)c2)[nH]1)Nc1ccc(C[C@@H]2CC[C@H]([C@H](O)c3ccccc3)N2)cc1` [Example 26] reads 0.101 to 1 µM. To `O=C(Cc1nnc(-c2ccn[nH]2)[nH]1)Nc1ccc(C[C@@H]2CC[C@H]([C@H](O)c3ccccc3)N2)cc1` [Example 27] belongs 0.001 to 0.01 µM. `Cn1nccc1-c1nnc(CC(=O)Nc2ccc(C[C@@H]3CC[C@H]([C@H](O)c4ccccc4)N3)cc2)[nH]1` [Example 28]: the EC50 was in the range of 0.011 to 0.1 µM. The result for `O=C(Cn1nnnc1-c1ccc(F)cc1)Nc1ccc(C[C@@H]2CC[C@H]([C@H](O)c3ccccc3)N2)cc1` [Example 29] reads 0.011 to 0.1 µM; that for `O=C(Nc1ccc(C[C@@H]2CC[C@H]([C@H](O)c3ccccc3)N2)cc1)c1ccccc1CCc1ccccc1` [Example 30], 0.101 to 1 µM. Take `O=C(Nc1ccc(C[C@@H]2CC[C@H]([C@H](O)c3ccccc3)N2)cc1)c1ccccc1COc1ccccc1` [Example 31]: the EC50 was in the range of 0.101 to 1 µM. To `O=C(Nc1ccc(C[C@@H]2CC[C@H]([C@H](O)c3ccccc3)N2)cc1)c1ccccc1CCn1cccc1` [Example 32] belongs 0.011 to 0.1 µM. The result for `O=C(Cc1nnc(Cc2ccccc2)[nH]1)Nc1ccc(C[C@@H]2CC[C@H]([C@H](O)c3ccccc3)N2)cc1` [Example 33] reads 0.011 to 0.1 µM; that for `O=C(Nc1ccc(C[C@@H]2CC[C@H]([C@H](O)c3ccccc3)N2)cc1)C1CCCN1c1cc(Cl)cc(Cl)c1` (some centres unmarked) [Example 35], 0.011 to 0.1 µM; that for `COc1cccc(N2CCCC2C(=O)Nc2ccc(C[C@@H]3CC[C@H]([C@H](O)c4ccccc4)N3)cc2)c1` (some centres unmarked) [Example 36], 0.001 to 0.01 µM.

Regarding `O=C(Nc1ccc(C[C@@H]2CC[C@H]([C@H](O)c3ccccc3)N2)cc1)C1CCCN1c1ccc(Cl)cc1` (some centres unmarked) [Example 37], the EC50 was in the range of 0.101 to 1 µM. As for `O=C(Nc1ccc(C[C@@H]2CC[C@H]([C@H](O)c3ccccc3)N2)cc1)C1CCCN1c1cccc(Br)c1` (some centres unmarked) [Example 38], the EC50 fell in the range of 0.001 to 0.01 µM. To `O=C(Nc1ccc(C[C@@H]2CC[C@H]([C@H](O)c3ccccc3)N2)cc1)C1CCCN1c1cccc(I)c1` (some centres unmarked) [Example 39] belongs 0.011 to 0.1 µM. With `O=C(Nc1ccc(C[C@@H]2CC[C@H]([C@H](O)c3ccccc3)N2)cc1)C1CCCN1c1nc2ccccc2s1` (some centres unmarked) [Example 40], the EC50 lay within 0.011 to 0.1 µM. For the molecule `O=C(Nc1ccc(C[C@@H]2CC[C@H]([C@H](O)c3ccccc3)N2)cc1)C1CCCN1c1nccs1` (some centres unmarked) [Example 41], the EC50 fell in the range of 0.001 to 0.01 µM. The result for `O=C(Cc1ccccn1)Nc1ccc(C[C@@H]2CC[C@H]([C@H](O)c3ccccc3)N2)cc1` [Example 43] reads 0.011 to 0.1 µM. The result for `O=C(Cc1cccnc1)Nc1ccc(C[C@@H]2CC[C@H]([C@H](O)c3ccccc3)N2)cc1` [Example 44] reads 0.101 to 1 µM; that for `O=C(Cc1ccncc1)Nc1ccc(C[C@@H]2CC[C@H]([C@H](O)c3ccccc3)N2)cc1` [Example 45], 1 to 3 µM; that for `O=C(Cc1ncccn1)Nc1ccc(C[C@@H]2CC[C@H]([C@H](O)c3ccccc3)N2)cc1` [Example 46], 0.011 to 0.1 µM.

Regarding `O=C(CCc1nc(-c2ccccc2)no1)Nc1ccc(C[C@@H]2CC[C@H]([C@H](O)c3ccccc3)N2)cc1` [Example 47], the EC50 is 0.001 to 0.01 µM. In the case of `O=C(Cn1ncc2ccccc2c1=O)Nc1ccc(C[C@@H]2CC[C@H]([C@H](O)c3ccccc3)N2)cc1` [Example 49], the EC50 lay in the range of 0.001 to 0.01 µM.

For `O=C(Cn1c(=O)[nH]c2ccccc2c1=O)Nc1ccc(C[C@@H]2CC[C@H]([C@H](O)c3ccccc3)N2)cc1` [Example 50], the EC50 was less than 0.001 µM.

Take `O=C(Cn1nc(Cl)ccc1=O)Nc1ccc(C[C@@H]2CC[C@H]([C@H](O)c3ccccc3)N2)cc1` [Example 51]: the EC50 was 0.001 to 0.01 µM. The result for `Cc1cn(CC(=O)Nc2ccc(C[C@@H]3CC[C@H]([C@H](O)c4ccccc4)N3)cc2)c(=O)[nH]c1=O` [Example 52] reads 0.001 to 0.01 µM. To `O=C(Cn1[nH]c(=O)c2ccccc2c1=O)Nc1ccc(C[C@@H]2CC[C@H]([C@H](O)c3ccccc3)N2)cc1` [Example 53] belongs 0.001 to 0.01 µM; to `NC(=O)c1nn(CC(=O)Nc2ccc(C[C@@H]3CC[C@H]([C@H](O)c4ccccc4)N3)cc2)c(=O)c2ccccc12` [Example 54], 0.001 to 0.01 µM.

`O=C(Cn1cnc2sccc2c1=O)Nc1ccc(C[C@@H]2CC[C@H]([C@H](O)c3ccccc3)N2)cc1` [Example 55]: the EC50 was 0.001 to 0.01 µM. `O=C(Cn1c(=O)[nH]c(=O)c2ccccc21)Nc1ccc(C[C@@H]2CC[C@H]([C@H](O)c3ccccc3)N2)cc1` [Example 57]: the EC50 lay within 0.001 to 0.01 µM. The result for `Cc1cccc2c(=O)n(CC(=O)Nc3ccc(C[C@@H]4CC[C@H]([C@H](O)c5ccccc5)N4)cc3)cnc12` [Example 58] reads 0.001 to 0.01 µM; that for `O=C(Cn1nnc2ccccc2c1=O)Nc1ccc(C[C@@H]2CC[C@H]([C@H](O)c3ccccc3)N2)cc1` [Example 59], 0.001 to 0.01 µM.

For `Cn1ncc2c(=O)n(CC(=O)Nc3ccc(C[C@@H]4CC[C@H]([C@H](O)c5ccccc5)N4)cc3)cnc21` [Example 60], the EC50 was in the range of 0.001 to 0.01 µM.

`O=C(Cn1ccc2ncccc2c1=O)Nc1ccc(C[C@@H]2CC[C@H]([C@H](O)c3ccccc3)N2)cc1` [Example 62]: the EC50 lay in the range of 0.001 to 0.01 µM. Take `O=C(Cn1ccc(=O)[nH]c1=O)Nc1ccc(C[C@@H]2CC[C@H]([C@H](O)c3ccccc3)N2)cc1` [Example 63]: the EC50 was 0.001 to 0.01 µM. The result for `O=C(Cn1cccnc1=O)Nc1ccc(C[C@@H]2CC[C@H]([C@H](O)c3ccccc3)N2)cc1` [Example 64] reads 0.001 to 0.01 µM; that for `O=C(Cn1ccc(=O)nc1)Nc1ccc(C[C@@H]2CC[C@H]([C@H](O)c3ccccc3)N2)cc1` [Example 66], 0.101 to 1 µM; that for `O=C(Cn1ccncc1=O)Nc1ccc(C[C@@H]2CC[C@H]([C@H](O)c3ccccc3)N2)cc1` [Example 67], 0.011 to 0.1 µM.

Regarding `O=C(Cc1n[nH]c(=O)[nH]1)Nc1ccc(C[C@@H]2CC[C@H]([C@H](O)c3ccccc3)N2)cc1` [Example 68], the EC50 is 0.011 to 0.1 µM. The result for `O=C(CC1NC(=O)NC1=O)Nc1ccc(C[C@@H]2CC[C@H]([C@H](O)c3ccccc3)N2)cc1` (some centres unmarked) [Example 69] reads 0.101 to 1 µM; that for `O=C(Cc1ccccc1F)Nc1ccc(C[C@@H]2CC[C@H]([C@H](O)c3ccccc3)N2)cc1` [Example 70], 0.011 to 0.1 µM; that for `O=C(Cc1c(F)cccc1F)Nc1ccc(C[C@@H]2CC[C@H]([C@H](O)c3ccccc3)N2)cc1` [Example 71], 0.001 to 0.01 µM. For `O=C(Cc1cccc(F)c1F)Nc1ccc(C[C@@H]2CC[C@H]([C@H](O)c3ccccc3)N2)cc1` [Example 72], the EC50 fell in the range of 0.011 to 0.1 µM. The result for `O=C(Cc1nnc[nH]1)Nc1ccc(C[C@@H]2CC[C@H]([C@H](O)c3ccccc3)N2)cc1` [Example 73] reads 0.011 to 0.1 µM; that for `Cc1nc(CC(=O)Nc2ccc(C[C@@H]3CC[C@H]([C@H](O)c4ccccc4)N3)cc2)no1` [Example 74], 0.001 to 0.01 µM; that for `O=C(Cc1nnn[nH]1)Nc1ccc(C[C@@H]2CC[C@H]([C@H](O)c3ccccc3)N2)cc1` [Example 75], 0.011 to 0.1 µM. The result for `Cn1nnnc1CC(=O)Nc1ccc(C[C@@H]2CC[C@H]([C@H](O)c3ccccc3)N2)cc1` [Example 76] reads 0.011 to 0.1 µM.

For the molecule `O=C(Cn1cnnn1)Nc1ccc(C[C@@H]2CC[C@H]([C@H](O)c3ccccc3)N2)cc1` [Example 77], the EC50 was in the range of 0.011 to 0.1 µM. In the case of `O=C(Cn1ncnn1)Nc1ccc(C[C@@H]2CC[C@H]([C@H](O)c3ccccc3)N2)cc1` [Example 78], the EC50 lay in the range of 0.011 to 0.1 µM.

In the case of `Cc1cn(CC(=O)Nc2ccc(C[C@@H]3CC[C@H]([C@H](O)c4ccccc4)N3)cc2)nn1` [Example 79], the EC50 lay in the range of 0.001 to 0.01 µM.
